Laboratory results taken from patent US20220265646A1, “PIEZO AGONISTS FOR PREVENTING OR REVERTING ABNORMAL AMYLOID DEPOSITION” (ITÄ-SUOMEN YLIOPISTO, priority 2019, published 2022).

Experiments:
[1] = system: Balb-c mice subjected to pMCAo; assay: Permanent middle cerebral artery occlusion (pMCAo) ischemic stroke model: MRI lesion size and adhesive removal test; format: in vivo, mouse; conditions: 1.78 mg/kg i.v.
Procedure: Permanent middle cerebral artery occlusion for modelling ischemic stroke and treatment with Yoda. Balb-c mice were subjected to permanent middle cerebral artery occlusion (pMCAo). The anaesthesia was induced by 5% isoflurane in 30% oxygen and 70% nitrogen as a carrier gas and maintained with 2% isoflurane during the surgical operation. The temperature was kept constant (37 ±1° C.) using the heating blanket connected to the rectal probe (Harvard apparatus, PanLab, Barcelona, Spain). The temporal muscle was detached from the scull and a hole (1 mm of diameter) was drilled to temporal bone. After removing the dura the exposed left MCA was lifted and occluded using a thermocoagulator (Aaron Medical Industries Inc., Clearwater, Fla., USA). […]
Lesion size measurement. The lesion volume was measured in vivo at 24 h and 72 h post ischemia by magnetic resonance imaging (MRI) using a vertical 9.4 T Oxford NMR 400 magnet (Oxford Instrument PLC, Abington, UK). […] Multislice T2-weighted images (repetition time 3000 ms, echo time 40 ms, matrix size 128×256, field of view 19.2×19.2 mm^2, slice thickness 0.8 mm and number of slices 12) were taken and the obtained images were analyzed with in-house made Aedes software under the Matlab environment (Math-works, Natick, Mass., USA).

[2] = biological target: T1, Piezo channels in red blood cells (Mus musculus, UniProt E2JF22); assay: Red blood cell (RBC) Ca2+ flux by flow cytometry; format: cell-based; conditions: 10 uM Yoda1, 17-23 weeks of age
T1 construct: from tissue; host or cells: red blood cells from blood of 5xFAD transgenic mice and wild-type controls
T1 sequence (E2JF22 whole entry): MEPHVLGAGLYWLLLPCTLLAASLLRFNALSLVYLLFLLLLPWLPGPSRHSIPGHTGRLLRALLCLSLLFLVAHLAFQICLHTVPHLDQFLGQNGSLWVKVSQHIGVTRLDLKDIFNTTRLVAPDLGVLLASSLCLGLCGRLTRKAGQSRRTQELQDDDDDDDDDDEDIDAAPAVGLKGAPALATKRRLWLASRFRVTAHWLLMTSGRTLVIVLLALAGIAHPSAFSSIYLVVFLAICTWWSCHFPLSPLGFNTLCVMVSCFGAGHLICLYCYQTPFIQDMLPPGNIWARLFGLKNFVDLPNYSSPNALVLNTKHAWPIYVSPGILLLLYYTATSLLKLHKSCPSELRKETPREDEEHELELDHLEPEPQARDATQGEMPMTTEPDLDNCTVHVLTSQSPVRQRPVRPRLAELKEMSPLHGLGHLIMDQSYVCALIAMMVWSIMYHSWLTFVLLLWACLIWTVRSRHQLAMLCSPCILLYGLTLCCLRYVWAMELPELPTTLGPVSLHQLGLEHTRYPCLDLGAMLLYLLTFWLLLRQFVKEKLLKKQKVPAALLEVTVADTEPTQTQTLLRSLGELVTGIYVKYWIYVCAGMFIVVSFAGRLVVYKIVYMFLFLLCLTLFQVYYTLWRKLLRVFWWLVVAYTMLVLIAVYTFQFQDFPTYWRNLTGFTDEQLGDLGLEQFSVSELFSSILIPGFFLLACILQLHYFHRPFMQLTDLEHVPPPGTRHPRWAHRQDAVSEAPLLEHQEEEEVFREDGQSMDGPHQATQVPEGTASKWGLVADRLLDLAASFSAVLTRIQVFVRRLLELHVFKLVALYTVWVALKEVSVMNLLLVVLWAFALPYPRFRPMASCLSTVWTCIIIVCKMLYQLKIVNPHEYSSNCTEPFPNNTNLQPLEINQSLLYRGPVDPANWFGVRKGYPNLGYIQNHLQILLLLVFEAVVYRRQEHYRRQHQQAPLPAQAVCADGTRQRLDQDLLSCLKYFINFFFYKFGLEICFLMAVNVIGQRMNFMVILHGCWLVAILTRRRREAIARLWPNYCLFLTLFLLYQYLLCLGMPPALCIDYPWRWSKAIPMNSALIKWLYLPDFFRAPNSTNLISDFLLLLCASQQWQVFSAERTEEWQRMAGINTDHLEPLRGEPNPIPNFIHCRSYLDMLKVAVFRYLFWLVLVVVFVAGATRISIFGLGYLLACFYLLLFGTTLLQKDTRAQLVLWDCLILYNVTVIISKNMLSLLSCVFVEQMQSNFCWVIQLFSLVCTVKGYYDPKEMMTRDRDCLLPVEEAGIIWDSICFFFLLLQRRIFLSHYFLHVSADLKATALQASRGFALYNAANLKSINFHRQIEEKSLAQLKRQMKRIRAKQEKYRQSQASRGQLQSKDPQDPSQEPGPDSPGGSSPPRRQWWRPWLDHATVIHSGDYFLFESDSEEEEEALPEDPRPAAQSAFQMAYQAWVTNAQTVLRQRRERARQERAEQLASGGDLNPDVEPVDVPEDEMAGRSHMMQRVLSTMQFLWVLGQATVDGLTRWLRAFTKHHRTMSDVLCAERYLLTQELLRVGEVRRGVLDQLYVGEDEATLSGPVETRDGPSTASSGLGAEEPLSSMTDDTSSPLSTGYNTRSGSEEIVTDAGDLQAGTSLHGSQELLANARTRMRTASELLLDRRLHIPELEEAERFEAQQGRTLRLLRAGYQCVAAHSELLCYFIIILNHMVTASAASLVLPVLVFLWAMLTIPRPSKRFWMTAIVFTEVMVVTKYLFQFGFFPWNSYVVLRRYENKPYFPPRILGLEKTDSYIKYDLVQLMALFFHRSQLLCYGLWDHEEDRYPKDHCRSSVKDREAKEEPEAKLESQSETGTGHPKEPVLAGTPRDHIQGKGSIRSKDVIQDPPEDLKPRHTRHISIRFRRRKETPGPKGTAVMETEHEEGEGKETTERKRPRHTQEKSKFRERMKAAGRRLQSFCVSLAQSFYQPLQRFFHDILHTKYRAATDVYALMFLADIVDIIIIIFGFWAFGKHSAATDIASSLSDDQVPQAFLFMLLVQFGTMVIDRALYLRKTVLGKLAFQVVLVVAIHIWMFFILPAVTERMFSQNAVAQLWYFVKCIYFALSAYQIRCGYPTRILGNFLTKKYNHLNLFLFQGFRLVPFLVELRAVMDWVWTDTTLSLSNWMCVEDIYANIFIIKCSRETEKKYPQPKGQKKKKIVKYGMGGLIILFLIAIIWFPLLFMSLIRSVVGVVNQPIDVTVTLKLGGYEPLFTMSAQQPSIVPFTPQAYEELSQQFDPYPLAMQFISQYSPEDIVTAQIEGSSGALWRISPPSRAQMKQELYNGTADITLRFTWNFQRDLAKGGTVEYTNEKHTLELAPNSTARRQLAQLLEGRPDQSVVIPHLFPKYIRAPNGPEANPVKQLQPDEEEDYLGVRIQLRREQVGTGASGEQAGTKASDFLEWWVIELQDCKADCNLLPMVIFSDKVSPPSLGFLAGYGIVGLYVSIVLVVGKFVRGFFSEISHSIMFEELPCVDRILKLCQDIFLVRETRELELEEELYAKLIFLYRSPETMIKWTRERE
Procedure: The blood samples (50-100 μl) were collected from 5xFAD mice at different ages (13-15 weeks, 15-17 weeks, 17-19 weeks, 19-21 weeks and 21-23 weeks of age) for analysis of RBC Ca2 flux. Shortly, the blood samples were collected in Eppendorf tubes with sodium citrate to prevent coagulation. Then the samples were filtered through 100 μm filters to remove possible contaminants and aggregates, followed by two times wash with PBS (5 mins, 300g, RT) to remove plasma. 50 μl of red blood cells were transferred to dean tube and resuspended in 200 μl PBS (250 μl total volume of cell suspension). 250 μl of Fluo4 stock solution was added and cells were incubated for 30 minutes at 37° C. in dark. […] The Ca2+ flux was recorded by CytoFlex at high 60 μl/min flow rate. Recording was started at 20 sec run after the flow rate is stabilized, After 20 sec recording (baseline fluorescence), the Yoda1 at final concentration 10 μM was applied, at 4 min 20 sec time point (4 minutes after Yoda1 is added) ionomycin at 10 μM final concentration is added as positive control and sample is continued running until 6 min were up. Mean fluorescence intensity was measured using gates at different time points—baseline (before application of Yoda1 10 μM), at 1 min, 2 min, 3 min, at 4 min of recording. […]
The samples were recorded for 6 minutes. […]

## Clc1cccc(Cl)c1CSc1nnc(-c2cnccn2)s1 [Yoda1]
[1]; 1 DPI and 3 DPI, versus vehicle
  lesion size measured with MRI: significantly smaller lesion size
[1]; ischemic mice
  ability to sense adhesive patches post stroke (adhesive removal test): no apparent deficits
[2]
  Yoda1 elicited calcium responses in red blood cells, TG 5xFAD versus age-matched WT: significantly lower
